In patent US11780827B2, “Substituted 3-phenoxyazetidin-1-yl-pyrazines” (Boehringer Ingelheim International GmbH, priority 2020, dated 2023):

Target: T1, human GPR52 (Homo sapiens, UniProt Q9Y2T5)
T1 construct: expressed in transfected cells; host or cells: CHO-K1
Assay: HTRF assay for direct cAMP measurement
Type: cell-based
Conditions: CHO-K1 cells stably expressing recombinant human GPR52, mean EC50
Procedure: Homogeneous Time-Resolved Fluorescence (HTRF) Assay for Direct cAMP Measurement.
HTRF cAMP assays were performed using commercially available assay kits according to the manufacturer's instructions (cAMP Dynamic 2 Assay Kit; #62AM4PEJ, Cisbio Bioassays, Bedford, Mass.). An aliquot of CHO-K1 cells stably expressing recombinant human GPR52 is thawed and resuspended in cell buffer (1×PBS (w/o Ca^2+/Mg^2+)) at a density of 4×10^5 cells per mL Test compounds were solubilized in DMSO to 10 mM stock solutions and serially diluted in DMSO using 6-fold dilutions to generate 8-point dose response curves. These serially diluted samples were then diluted 1:50 in compound dilution buffer (1×PBS (w/o Ca^2+/Mg^2+) containing 0.5 mM IBMX, 0.1% BSA) to achieve a 4× stock. The diluted compounds were transferred (5 μL per well) in duplicate to the 384-well assay plate (Optiplate #6007290, PerkinElmer, Waltham, Mass.). Both a positive (reference compound) and negative (non-stimulated vehicle) control are included in each assay run in column 23. The cell suspension was subsequently dispensed into the 384-well assay plates at 15 μL per well (6000 cells) such that the compound was diluted to 1×. […] After a one-hour incubation at room temperature, 10 μL of cAMP D2 reagent followed by 10 μL of cryptate reagent (provided in the Cisbio kit) was added to each well. Plates were then incubated at room temperature for one hour prior to reading. Time-resolved fluorescence measurements were collected on an EnVision® HTRF plate reader (PerkinElmer, Waltham, Mass.). Counts from the plate reader were fit to the cAMP standard curve included on each plate to determine the amount of cAMP in each test well. The % control was calculated based on the positive control set at […]. Dose-response curves were generated from the cAMP data and analyzed using a nonlinear least squares curve-fitting program to obtain EC50 values.

T1 sequence (Q9Y2T5 whole entry): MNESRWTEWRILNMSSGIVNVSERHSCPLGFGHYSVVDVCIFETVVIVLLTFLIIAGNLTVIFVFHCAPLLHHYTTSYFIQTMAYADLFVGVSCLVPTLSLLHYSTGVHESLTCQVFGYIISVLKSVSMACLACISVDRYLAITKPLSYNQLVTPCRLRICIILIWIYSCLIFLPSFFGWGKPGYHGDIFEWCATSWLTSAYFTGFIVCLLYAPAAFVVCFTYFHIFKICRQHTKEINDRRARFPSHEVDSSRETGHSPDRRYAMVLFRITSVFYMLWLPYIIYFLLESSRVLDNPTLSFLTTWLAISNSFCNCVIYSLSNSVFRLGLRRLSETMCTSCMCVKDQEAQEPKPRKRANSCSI

EC50 [nM] | Structure (SMILES)
9 | O=C(Nc1ccnnc1)c1nccnc1N1CC(Oc2cc(F)cc(C(F)(F)F)c2)C1 [Example 1]
9 | O=C(Nc1ccnnc1)c1nccnc1N1CC(Oc2cc(F)cc(Cl)c2)C1 [Example 2]
19 | O=C(Nc1ccnnc1)c1nccnc1N1CC(Oc2cc(F)cc(F)c2)C1 [Example 3]
10 | O=C(Nc1ccnnc1)c1nccnc1N1CC(Oc2ccc(F)c(F)c2)C1 [Example 5]
6 | O=C(Nc1ccnnc1)c1nccnc1N1CC(Oc2cc(F)cc(C(F)F)c2)C1 [Example 6]
10 | O=C(Nc1ccnnc1)c1nccnc1N1CC(Oc2ccc(F)c(Cl)c2)C1 [Example 7]
4 | O=C(Nc1ccnnc1)c1nccnc1N1CC(Oc2cc(F)c(F)c(Cl)c2)C1 [Example 8]
14 | Cc1cc(NC(=O)c2nccnc2N2CC(Oc3cc(F)cc(C(F)(F)F)c3)C2)cnn1 [Example 9]
4 | Cc1cc(NC(=O)c2nccnc2N2CC(Oc3ccc(F)c(Cl)c3)C2)cnn1 [Example 16]
4 | Cc1cc(NC(=O)c2nccnc2N2CC(Oc3ccc(F)c(Cl)c3)C2)ncn1 [Example 25]
6 | Cc1cc(NC(=O)c2nccnc2N2CC(Oc3cc(F)c(F)c(F)c3)C2)ncn1 [Example 26]
11 | Cc1cc(NC(=O)c2nccnc2N2CC(Oc3cc(F)cc(C(F)F)c3)C2)ncn1 [Example 27]
12 | Cc1cc(NC(=O)c2nccnc2N2CC(Oc3cc(F)cc(F)c3)C2)ncn1 [Example 28]
8 | Cc1cc(NC(=O)c2nccnc2N2CC(Oc3cc(F)cc(Cl)c3)C2)ncn1 [Example 30]
17 | Cc1cc(NC(=O)c2nccnc2N2CC(Oc3cc(F)cc(C(F)(F)F)c3)C2)ncn1 [Example 31]
8 | Cc1cc(NC(=O)c2nccnc2N2CC(Oc3cc(F)c(F)c(Cl)c3)C2)ncn1 [Example 32]
10 | CCc1cc(NC(=O)c2nccnc2N2CC(Oc3cc(F)cc(F)c3)C2)ncn1 [Example 33]
30 | CCc1cc(NC(=O)c2nccnc2N2CC(Oc3cc(F)cc(C(F)(F)F)c3)C2)ncn1 [Example 34]
8 | CCc1cc(NC(=O)c2nccnc2N2CC(Oc3cc(F)cc(Cl)c3)C2)ncn1 [Example 35]
6 | CCc1cc(NC(=O)c2nccnc2N2CC(Oc3cc(F)c(F)c(F)c3)C2)ncn1 [Example 36]
9 | CCc1cc(NC(=O)c2nccnc2N2CC(Oc3cc(F)c(F)c(Cl)c3)C2)ncn1 [Example 38]
12 | CCc1cc(NC(=O)c2nccnc2N2CC(Oc3cc(F)cc(C(F)F)c3)C2)ncn1 [Example 39]
5 | CCc1cc(NC(=O)c2nccnc2N2CC(Oc3ccc(F)c(Cl)c3)C2)ncn1 [Example 40]
12 | O=C(Nc1ccncn1)c1nccnc1N1CC(Oc2cc(F)c(F)c(Cl)c2)C1 [Example 41]
23 | O=C(Nc1ccncn1)c1nccnc1N1CC(Oc2cc(F)c(F)c(F)c2)C1 [Example 42]
37 | O=C(Nc1ccncn1)c1nccnc1N1CC(Oc2ccc(F)c(Cl)c2)C1 [Example 44]
14 | O=C(Nc1cc(C(F)(F)F)ncn1)c1nccnc1N1CC(Oc2ccc(F)c(Cl)c2)C1 [Example 45]

Structure (SMILES) | EC50 [nM]
CCc1cc(NC(=O)c2nccnc2N2CC(Oc3cc(F)cc(C(F)(F)F)c3)C2)cnn1 [Example 17] | 11
CCc1cc(NC(=O)c2nccnc2N2CC(Oc3cc(F)cc(Cl)c3)C2)cnn1 [Example 18] | 6
CCc1cc(NC(=O)c2nccnc2N2CC(Oc3ccc(F)c(Cl)c3)C2)cnn1 [Example 19] | 4
CCc1cc(NC(=O)c2nccnc2N2CC(Oc3cc(F)c(F)c(F)c3)C2)cnn1 [Example 20] | 5
CCc1cc(NC(=O)c2nccnc2N2CC(Oc3cc(F)cc(C(F)F)c3)C2)cnn1 [Example 22] | 7
CCc1cc(NC(=O)c2nccnc2N2CC(Oc3cc(F)c(F)c(Cl)c3)C2)cnn1 [Example 23] | 6
CCc1cc(NC(=O)c2nccnc2N2CC(Oc3cc(F)cc(F)c3)C2)cnn1 [Example 24] | 6
CCc1cc(NC(=O)c2nccnc2N2CC(Oc3ccc(F)c(F)c3)C2)ncn1 [Example 37] | 3
O=C(Nc1ccncn1)c1nccnc1N1CC(Oc2ccc(F)c(F)c2)C1 [Example 43] | 45
O=C(Nc1cc(C(F)(F)F)ncn1)c1nccnc1N1CC(Oc2ccc(F)c(F)c2)C1 [Example 46] | 7
